{"source": "paper PMC3376645", "about": "(Chemical Communications (Cambridge, England), 2012)", "key": {"[1]": {"assay": "Gelation screening in buffer by heat/cool method", "assay_type": "physicochemical", "conditions": "buffer 100 mM PBS, 10% DMSO, pH = 7.2"}, "[2]": {"system": "thrombin", "assay": "LC-MS analysis of aliquots to determine conversion", "assay_type": "biochemical", "conditions": "1 mM PMSF"}, "[3]": {"conditions": "approximate; stated without experiment or reference; cited from earlier work"}}}
{"compound": "PABA-F5Phe-NH2 [Compound 1]", "values": [{"measurement": "critical gel concentration (cgc)", "setting": "[1]", "value": 54, "unit": "mM"}]}
{"compound": "O=S(=O)(F)Cc1ccccc1", "note": "[PMSF]", "values": [{"measurement": "effect of thrombin inhibitor on enzymatic cleavage of compound 4", "setting": "[2]", "value": "decrease in the rate of enzymatic cleavage"}]}
{"compound": "Nc1ccc(C(=O)O)cc1", "note": "[PABA, p-aminobenzoic acid]", "values": [{"measurement": "pKa", "setting": "[3]", "value": "~5"}]}
